Assay results reported in US20040014702A1, “Mammalian prostaglandin H synthase-2” (priority 1992, published 2004).
Each block holds one compound with its values, some of them ahead of it.

How the values were obtained:
[1] = system: PGHS-2; conditions: cytokine-treated astrocytes; cited from earlier work
[2] = system: colon polyp; conditions: patients with familial polyposis; cited from earlier work
[3] = biological target: T1, griPGHS (Mus musculus, UniProt Q05769); conditions: E9 cells
T1 sequence (Q05769 18-604): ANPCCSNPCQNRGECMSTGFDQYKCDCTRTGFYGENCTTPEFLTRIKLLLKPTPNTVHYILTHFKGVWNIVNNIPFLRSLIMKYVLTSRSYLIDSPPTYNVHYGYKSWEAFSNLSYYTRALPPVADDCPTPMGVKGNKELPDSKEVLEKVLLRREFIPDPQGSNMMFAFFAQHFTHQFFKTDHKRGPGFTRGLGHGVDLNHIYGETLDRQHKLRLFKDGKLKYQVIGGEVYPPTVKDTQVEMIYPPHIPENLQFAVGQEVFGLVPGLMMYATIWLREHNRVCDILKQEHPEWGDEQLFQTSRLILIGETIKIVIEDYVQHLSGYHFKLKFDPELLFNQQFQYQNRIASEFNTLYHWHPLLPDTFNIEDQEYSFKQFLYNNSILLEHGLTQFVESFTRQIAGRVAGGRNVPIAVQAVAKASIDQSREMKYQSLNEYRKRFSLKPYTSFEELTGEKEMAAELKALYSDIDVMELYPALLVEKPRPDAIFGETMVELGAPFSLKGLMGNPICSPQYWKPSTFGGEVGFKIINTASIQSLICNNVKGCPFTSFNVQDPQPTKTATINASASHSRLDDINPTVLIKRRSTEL
Method: (§1) Cyclooxygenase activity was determined in the cultures by addition of media containing exogenous arachidonic acid substrate (30 AM for 15 min. at 37° C.) followed by conversion of the prostaglandin E2 product to a methyl oximate form. This derivative was then quantitated by radioimmunoassay (kit from Amersham Corp.).
Prostaglandin assays were carried out as described above. For drug studies, cells were exposed to various concentrations of drugs for 30 min in serum-free DMEM and arachidonic acid was added directly from a 25×stock in DMEM. Supernatants were harvested 15 min later. Controls consisted of no drugs and wells treated with maximal concentrations of drug vehicles (1% methanol or ethanol).
Cells were placed in serum-free medium with the drugs for 30 min prior to a 15 min exposure to arachidonic acid (added directly to the media). Synthesized PGE2 was then quantitated from the supernatants by a standard radio immunoassay.

[4] = system: colon tumor; conditions: several clinical trials; cited from earlier work
[5] = biological target: T2, human PGHS-2 (Homo sapiens, UniProt P35354); conditions: cell lines incl. H17A5 (PGHS-1) and 4B4 (PGHS-2), 30 min drug, 15 min arachidonic acid
T2 sequence (P35354 18-604): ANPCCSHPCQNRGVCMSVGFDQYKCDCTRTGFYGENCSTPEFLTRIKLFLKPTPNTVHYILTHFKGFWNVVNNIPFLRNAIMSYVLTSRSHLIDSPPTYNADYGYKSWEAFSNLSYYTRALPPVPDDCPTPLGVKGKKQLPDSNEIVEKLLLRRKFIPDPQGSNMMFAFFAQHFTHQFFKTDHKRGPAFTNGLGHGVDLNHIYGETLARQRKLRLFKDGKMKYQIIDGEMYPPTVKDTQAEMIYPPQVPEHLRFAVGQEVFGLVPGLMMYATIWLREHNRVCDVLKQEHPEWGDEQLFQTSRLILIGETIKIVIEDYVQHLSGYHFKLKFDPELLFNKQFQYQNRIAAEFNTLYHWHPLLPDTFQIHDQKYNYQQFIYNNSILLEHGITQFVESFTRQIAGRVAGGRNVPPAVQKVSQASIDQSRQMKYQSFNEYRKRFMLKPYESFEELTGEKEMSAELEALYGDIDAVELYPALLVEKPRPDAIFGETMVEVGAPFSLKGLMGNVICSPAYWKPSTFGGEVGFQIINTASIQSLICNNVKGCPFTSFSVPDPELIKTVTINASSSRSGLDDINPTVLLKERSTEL
Method: PGHS-1 and PGHS-2 cell lines (including 4B4 and H17A5) were exposed to various concentrations of NSAID for 30 min in serum-free DMEM. Arachidonic acid was added directly from a 25×stock in DMEM and supernatants were harvested 15 min later. Controls consisted of no drug treatment and cells treated with the maximal concentrations of drug vehicles (1% methanol or ethanol). […] Cyclooxygenase activity was determined as described herein above.

[6] = system: 2.8-kb PGHS mRNA; experiment: Northern blot of 2.8-kb PGHS (PGHS-1) mRNA in human monocytes; assay type: cell-based; conditions: IL-1β, dexamethasone or cycloheximide treatment
Method: (§2) Poly-A enriched RNAs (2.5 μg) from C127 cells were fractionated by formaldehyde-agarose gel electrophoresis and transferred to a membrane (Duralon, Stratagene). Hybridization was carried out as previously described by O'Banion et al., 1991, J. Virol., 65:3481-3488, using the 5′ 1.2 kb EcoRI fragment of the 4.1 kb cDNA labeled with ^32P by random priming as disclosed by Feinberg et al., 1983, Anal. Biochem., 132:6-13. The membrane was later rehybridized with a similarly labeled portion (1.6 kb 5′ end) of the 2.8 kb ovine PGHS cDNA (Oxford Biomedical Research, Inc.), and an end-labeled 40-mer complimentary to β-tubulin (Oncor). RNA molecular weight markers (Life Technologies) were visualized by ethidium bromide staining. A similar analysis was performed on total RNA (5 μg/lane) isolated from human monocytes by the guanidinium-acid-phenol extraction method of Chomczynski et al., 1987, Anal. Biochem., 162:156-159.
Adherent human monocytes isolated from healthy donors as described by Roberts et al., 1978, J. Immunol, 121:1052-1058, were suspended in M199 medium without serum at 1×10^6 cells/ml. one ml aliquots in 5 ml polypropylene tubes were incubated with loosened caps in 5% CO2 at 37° C. with occasional shaking. […]

[7] = system: griPGHS mRNA (4.8-kb mRNA); experiment: Northern blot of griPGHS (PGHS-2) mRNA in human monocytes; assay type: cell-based; conditions: for increased levels of griPGHS mRNA relative to control: IL-1β 10 half-maximal units
Method: as §2
(§3) Adherent human monocytes isolated from healthy donors as described by Roberts et al., 1978, J. Immunol, 121:1052-1058, were suspended in M199 medium without serum at 1×10^6 cells/ml. one ml aliquots in 5 ml polypropylene tubes were incubated with loosened caps in 5% CO2 at 37° C. with occasional shaking. To derive the autoradiograph shown in FIG. 3A, monocytes were incubated for 4 hr in the presence or absence of dexamethasone (1 AM; Sigma) prior to total RNA isolation by the procedure of P. Chomczynski et al., cited above. Five μg RNA was subjected to Northern blot analysis as described by O'Banion et al., 1991, J. Biol. Chem., 34:23261-23267 with the indicated probes labeled by random priming (kit from Boehringer-Mannheim) to a specific activity >1×10^9 cpm/μg. To derive the autoradiograph shown in FIG. 3B, monocytes were treated with dexamethasone (1 μM), […] (10 half-maximal units, Collaborative Research), or both for the indicated times prior to RNA isolation. Cycloheximide (25 μM; Sigma) was added to one set of incubations 15 min prior to the addition of cytokine or hormone.

[8] = system: C127 mouse fibroblasts; experiment: Inhibition of protein synthesis in C127 cell cultures; assay type: cell-based; conditions: C127, 0.25 h, within 15 min
Method: Exponentially growing, subconfluent (60-80%) cell monolayers (35-mm plates) were labeled in Dulbecco's modified Eagle's medium without methionine (Life Technologies) plus 200 μCi/ml Tran^35S-label (>1,000 Ci/mmol; ICN) for 15 or 30 min. In some cases, fresh fetal calf serum (10%) was present during the labeling period. Monolayers were rinsed twice with ice-cold Dulbecco's modified Eagle's medium (DMEM) with methionine prior to lysis in 200 μl of A8 buffer (9.5 M urea, 2% (w/v) Nonidet P-40, 2% (w/v) ampholines (LKB, 1.6% pH range 5-8, 04.% pH range 3.5-10), 5% (w/v) 2-mercaptoethanol). Incorporation of label into proteins was determined by trichloroacetic acid precipitation. Dexamethasone (Sigma) was freshly prepared in phosphate-buffered saline (PBS) (stock concentrations based on molar extinction coefficient of 1.5×10^4 liters/mol/cm at 250 nn) and added to 1 μM. The calcium ionophore A23187 (Calbiochem) was used at a concentration of 5 μM from a 2.5 mM stock in ethanol. Cycloheximide (Sigma) was used at a concentration of 25 μM from a 100× stock in water. This level inhibited protein synthesis by >97% within 15 min. Control cultures received appropriate amounts of solvents.

[9] = system: human monocytes; experiment: Accumulated PGE2 in supernatant of human monocytes; assay type: cell-based; conditions: after 4 hr of incubation, dexamethasone 1 μM; without 122.5
Method: as §1
as §3, with “Cycloheximide (25 μM; Sigma) was added to one set of incubations 15 min prior to the addition of cytokine or hormone.” left out

[10] = system: lung disease of cystic fibrosis; conditions: high-dose, cystic fibrosis patient population; cited from earlier work

Compound: CS(=O)(=O)Nc1ccc([N+](=O)[O-])cc1OC1CCCCC1 [NS-398]
induced cyclooxygenase activity [1]: blocked

Compound: CC1=C(CC(=O)O)c2cc(F)ccc2/C1=C\c1ccc([S+](C)[O-])cc1 (stereo not drawn) [Sulindac]
effect on colon polyps [2]: colon polyp regression

potency against griPGHS activity (rank among four NSAIDs) ([3]; 0.2 μM-2 mM, 30 min drug then 15 min arachidonic acid): the least
concentration not sufficient for full inhibition of griPGHS activity ([3]; highest dose tested): > 2 mM
Compound: CC(=O)Nc1ccc(O)cc1 [acetaminophen]

Compound: CC(=O)Oc1ccccc1C(=O)O [aspirin]
association of use with colon tumor outcome [4]: decreased colon tumor growth and death
levels of drug required for inhibition, cells expressing PGHS-1 versus PGHS-2 [5]: different

Compound: C[C@@H]1C[C@@H]([C@H](O)CC2CC(=O)NC(=O)C2)C(=O)[C@@H](C)C1 [cycloheximide]
levels of the 2.8-kb mRNA relative to β-tubulin [6]: not significantly altered
effect on 4.8-kb griPGHS mRNA ([7]; cycloheximide 25 μM added 15 min before cytokine or hormone): superinduction
inhibition at 25 µM [8]: > 97%

Compound: C[C@@H]1C[C@H]2[C@@H]3CCC4=CC(=O)C=C[C@]4(C)[C@@]3(F)[C@@H](O)C[C@]2(C)[C@@]1(O)C(=O)CO [dexamethasone]
griPGHS mRNA levels down-regulated, normalized to β-tubulin ([7]; dexamethasone 1 μM, 4 hr, human monocytes): 5 fold
level of accumulated PGE2 in the supernatant [9]: 52.5 pg per 10^4 monocytes

Compound: CC(C)Cc1ccc(C(C)C(=O)O)cc1 (stereo not drawn) [ibuprofen]
effect on lung disease [10]: slows the progression of lung disease

Compound: IL-1β: proinflammatory cytokine, known mediator of inflammation (Collaborative Research)
levels of the 2.8-kb mRNA relative to β-tubulin [6]: not significantly altered
increased levels of griPGHS mRNA relative to control ([7]; 4 hr, human monocytes): 2.5 fold
increased levels of griPGHS mRNA relative to control ([7]; 12 hr, human monocytes): 14 fold
